In patent US10206394B2, “Herbicidal compounds” (Syngenta Participations AG, priority 2014, dated 2019):
Where two headings read alike, the source gives them in different places.

Legend:
Test in all cases: Glasshouse assay for herbicidal activity (pre- and post-emergence), percentage phytotoxicity
Assay type in all cases: in vivo
[1] = system: Alopecurus myosuroides (ALOMY); conditions: Alopecurus myosuroides, 250 g/ha, visual assessment (100%=total damage, 0%=no damage)
Summary of the method: (§1)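 Visually rated damage, 0–100%. PRE spray 1 d after sowing, scored 20 DAA; POST spray ~12 d, scored 15 DAA. Glasshouse at 65% humidity, 16 h day.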

Avena fatua (AVEFA) = conditions: Avena fatua, 250 g/ha, visual assessment (100%=total damage, 0%=no damage)
Summary of the method: as §1

[2] = system: Echinochloa crus-galli (ECHCG); conditions: Echinochloa crus-galli, 250 g/ha, visual assessment (100%=total damage, 0%=no damage)
Summary of the method: as §1

Lolium perenne (LOLPE) = conditions: Lolium perenne, 250 g/ha, visual assessment (100%=total damage, 0%=no damage)
Summary of the method: as §1

[3] = post-emergence, 360 h, post-emergence, 15 DAA, read-out: Post-emergence herbicidal activity (percentage phytotoxicity) ALOMY POST
[4] = pre-emergence, 480 h, pre-emergence, 20 DAA, read-out: Pre-emergence herbicidal activity (percentage phytotoxicity) ALOMY PRE
[5] = post-emergence, 360 h, post-emergence, 15 DAA, read-out: Post-emergence herbicidal activity (percentage phytotoxicity) AVEFA POST
[6] = pre-emergence, 480 h, pre-emergence, 20 DAA, read-out: Pre-emergence herbicidal activity (percentage phytotoxicity) AVEFA PRE
[7] = post-emergence, 360 h, post-emergence, 15 DAA, read-out: Post-emergence herbicidal activity (percentage phytotoxicity) ECHCG POST
[8] = pre-emergence, 480 h, pre-emergence, 20 DAA, read-out: Pre-emergence herbicidal activity (percentage phytotoxicity) ECHCG PRE
[9] = post-emergence, 360 h, post-emergence, 15 DAA, read-out: Post-emergence herbicidal activity (percentage phytotoxicity) LOLPE POST
[10] = pre-emergence, 480 h, pre-emergence, 20 DAA, read-out: Pre-emergence herbicidal activity (percentage phytotoxicity) LOLPE PRE

Row | SMILES | pest or weed control at 250 g/ha [1, 3] [%] | pest or weed control at 250 g/ha [1, 4] [%] | pest or weed control at 250 g/ha (Avena fatua (AVEFA); [5]) [%] | pest or weed control at 250 g/ha (Avena fatua (AVEFA); [6]) [%] | pest or weed control at 250 g/ha [2, 7] [%] | pest or weed control at 250 g/ha [2, 8] [%] | pest or weed control at 250 g/ha (Lolium perenne (LOLPE); [9]) [%] | pest or weed control at 250 g/ha (Lolium perenne (LOLPE); [10]) [%]
1 | Cc1cc(C)c(C2C(=O)CC(CC(=O)NC/C=C/Cl)C2=O)c(C)c1 (centres unmarked) [Compound B46] | 90 | 90 | 90 | 60 | 90 | 90 | 90 | 100
2 | C/C=C/CNC(=O)CC1CC(=O)C(c2c(C)cc(C)cc2C)C1=O (centres unmarked) [Compound B47] | 90 | 90 | 80 | 60 | 90 | 90 | 90 | 100
3 | Cc1cc(-c2ncc(Cl)cc2C#N)cc(C)c1C1C(=O)CC(CC(=O)NC(C)(C)C)C1=O (centres unmarked) [Compound B48] | 80 | 90 | 80 | 30 | 100 | 90 | 90 | 80
4 | Cc1cc(-c2ncc(Cl)cn2)cc(C)c1C1C(=O)C[C@@H](CC(=O)NC(C)(C)C)C1=O (some centres unmarked) [Compound B49] | 100 | 100 | 100 | 90 | 100 | 100 | 100 | 100
5 | Cc1cc(-c2ncc(Cl)cn2)cc(C)c1C1C(=O)C[C@H](CC(=O)NC(C)(C)C)C1=O (some centres unmarked) [Compound B50] | 100 | 90 | 90 | 70 | 100 | 100 | 100 | 100
6 | Cc1cc(-c2ncc(F)cc2F)cc(C)c1C1C(=O)C[C@@H](CC(=O)NC(C)(C)C)C1=O (some centres unmarked) [Compound B51] | 100 | 90 | 100 | 80 | 100 | 100 | 100 | 100
7 | Cc1cc(-c2ncc(F)cc2F)cc(C)c1C1C(=O)C[C@H](CC(=O)NC(C)(C)C)C1=O (some centres unmarked) [Compound B52] | 100 | 90 | 90 | 70 | 100 | 90 | 100 | 100
8 | Cc1cc(-c2ncc(Cl)cc2F)cc(C)c1C1C(=O)CC(CC(N)=O)C1=O (centres unmarked) [Compound B53] | 90 | 90 | 100 | 100 | 100 | 90 | 100 | 90
9 | Cc1cc(-c2ncc(F)cc2F)cc(C)c1C1C(=O)CC(CC(N)=O)C1=O (centres unmarked) [Compound B54] | 100 | 80 | 100 | 80 | 100 | 80 | 100 | 80
10 | C#CC(C)(COC)NC(=O)CC1CC(=O)C(c2c(C)cc(C)cc2C)C1=O (centres unmarked) [Compound B55] | 80 | 80 | 60 | 30 | 60 | 50 | 70 | 70
11 | C#CC(C)NC(=O)CC1CC(=O)C(c2c(C)cc(C)cc2C)C1=O (centres unmarked) [Compound B56] | 90 | 80 | 90 | 70 | 90 | 90 | 90 | 80
12 | Cc1cc(C)c(C2C(=O)CC(CC(=O)NCC(F)F)C2=O)c(C)c1 (centres unmarked) [Compound B57] | 70 | 70 | 80 | 20 | 80 | 90 | 80 | 80
13 | Cc1cc(C)c(C2C(=O)CC(CC(=O)NC(C#N)C3CC3)C2=O)c(C)c1 (centres unmarked) [Compound B58] | 50 | 10 | 70 | 40 | 20 | 20 | 50 | 20
14 | Cc1cc(C)c(C2C(=O)CC(CC(=O)NCC(F)(F)F)C2=O)c(C)c1 (centres unmarked) [Compound B59] | 70 | 70 | 70 | 30 | 80 | 90 | 80 | 90
15 | Cc1cc(C)c(C2C(=O)CC(CC(=O)NCC3CC3C(F)F)C2=O)c(C)c1 (centres unmarked) [Compound B60] | 80 | 90 | 80 | 60 | 90 | 90 | 80 | 80
16 | Cc1cc(C)c(C2C(=O)CC(CC(=O)NCCF)C2=O)c(C)c1 (centres unmarked) [Compound B61] | 80 | 70 | 90 | 70 | 90 | 90 | 90 | 90
17 | C=CC1(NC(=O)CC2CC(=O)C(c3c(C)cc(C)cc3C)C2=O)CC1 (centres unmarked) [Compound B62] | 70 | 80 | 70 | 40 | 70 | 90 | 90 | 90
18 | Cc1cc(C)c(C2C(=O)CC(CC(=O)NC(C)C(F)(F)F)C2=O)c(C)c1 (centres unmarked) [Compound B63] | 70 | 80 | 70 | 50 | 70 | 80 | 70 | 80
19 | Cc1cc(C)c(C2C(=O)CC(CC(=O)Nc3ccccn3)C2=O)c(C)c1 (centres unmarked) [Compound B64] | 80 | 80 | 70 | 50 | 70 | 80 | 80 | 70
